Assay results taken from BindingDB's records for doi:10.1016/j.bmcl.2016.09.067 (Amgen, 2016).

Assays:
[1] = target: Serine/threonine-protein kinase pim-2 (Homo sapiens, UniProt Q9P1W9); assay: Inhibition of recombinant Pim2 (unknown origin) by electrochemiluminescence assay
[2] = target: Serine/threonine-protein kinase pim-1 (Homo sapiens, UniProt P11309); assay: Inhibition of recombinant Pim1 (unknown origin) by electrochemiluminescence assay
Serine/threonine-protein kinase pim-1, sequence (P11309 whole entry): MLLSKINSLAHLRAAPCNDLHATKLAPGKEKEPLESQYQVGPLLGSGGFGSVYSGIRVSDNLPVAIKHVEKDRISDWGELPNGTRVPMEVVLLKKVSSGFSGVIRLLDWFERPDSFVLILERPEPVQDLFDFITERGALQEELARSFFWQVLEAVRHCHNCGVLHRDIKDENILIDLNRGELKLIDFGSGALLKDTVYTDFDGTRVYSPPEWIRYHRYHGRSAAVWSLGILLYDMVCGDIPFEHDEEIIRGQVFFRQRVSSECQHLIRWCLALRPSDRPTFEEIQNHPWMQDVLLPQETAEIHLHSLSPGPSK

Serine/threonine-protein kinase pim-2, sequence (Q9P1W9 whole entry): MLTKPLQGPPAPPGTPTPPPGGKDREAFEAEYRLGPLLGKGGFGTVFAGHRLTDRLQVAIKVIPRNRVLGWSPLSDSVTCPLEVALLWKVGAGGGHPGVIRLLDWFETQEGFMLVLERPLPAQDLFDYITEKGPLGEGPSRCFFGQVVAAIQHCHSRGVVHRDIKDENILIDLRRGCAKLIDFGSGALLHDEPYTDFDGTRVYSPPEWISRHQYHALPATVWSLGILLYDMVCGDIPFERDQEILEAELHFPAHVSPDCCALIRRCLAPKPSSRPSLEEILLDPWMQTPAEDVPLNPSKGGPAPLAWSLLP

| Structure (SMILES) | IC50 [1] | IC50 [2] |
| --- | --- | --- |
| N[C@H]1CCN(c2ccncc2Nc2ncc3ccc(-c4c(F)cccc4F)nn23)C1 [US9187486, 13] | > 1000 nM | – |
| N[C@H]1CCCN(c2cnccc2Nc2ncc3ccc(-c4c(F)cccc4F)nn23)C1 [US9187486, 80] | > 1000 nM | > 1000 nM |
